What was measured:
[1] = tested on: Antioxidant Response Element; settings: cited from earlier work
[2] = tested on: dendritic cells of bone marrow and spleen; settings: cited from earlier work
[3] = tested on: serum and liver lipids; settings: following exposure to toxic ionizing radiation; cited from earlier work
[4] = tested on: rats; settings: high levels for long periods of time; cited from earlier work
[5] = tested on: lipid peroxidation; settings: in vitro and ex vivo; cited from earlier work
[6] = tested on: 5-LOX mediated LT biosynthesis; experiment: Leukotriene (LT) biosynthesis inhibition; type: biochemical
Excerpt: (§1) The body's early defense in response to trauma, inflammation or infection, the acute phase response (APR), is a complex set of systemic reactions seen shortly after exposure to a triggering event. The APR is induced by protein hormones called cytokines acting as messengers between the local site of injury and the hepatocytes synthesizing the acute phase proteins such as serum amyloid A. Most cytokines have multiple sources, targets and multiple functions. The pro-inflammatory cytokines can be divided into two major groups with respect to acute phase proteins inductions, the Interleukin-1 (IL-1) type (including Tumor Necrosis Factor-a, TNF-a) and the IL-6 type cytokines (including IL-6 cytokine). These cytokines are secreted primarily by monocytes activated by bacterial toxins or in response to local tissue injury.

[7] = biological target: T1, COX-2 (Homo sapiens, UniProt P35354); experiment: COX-2 inhibition; type: biochemical
T1 sequence (P35354 18-604): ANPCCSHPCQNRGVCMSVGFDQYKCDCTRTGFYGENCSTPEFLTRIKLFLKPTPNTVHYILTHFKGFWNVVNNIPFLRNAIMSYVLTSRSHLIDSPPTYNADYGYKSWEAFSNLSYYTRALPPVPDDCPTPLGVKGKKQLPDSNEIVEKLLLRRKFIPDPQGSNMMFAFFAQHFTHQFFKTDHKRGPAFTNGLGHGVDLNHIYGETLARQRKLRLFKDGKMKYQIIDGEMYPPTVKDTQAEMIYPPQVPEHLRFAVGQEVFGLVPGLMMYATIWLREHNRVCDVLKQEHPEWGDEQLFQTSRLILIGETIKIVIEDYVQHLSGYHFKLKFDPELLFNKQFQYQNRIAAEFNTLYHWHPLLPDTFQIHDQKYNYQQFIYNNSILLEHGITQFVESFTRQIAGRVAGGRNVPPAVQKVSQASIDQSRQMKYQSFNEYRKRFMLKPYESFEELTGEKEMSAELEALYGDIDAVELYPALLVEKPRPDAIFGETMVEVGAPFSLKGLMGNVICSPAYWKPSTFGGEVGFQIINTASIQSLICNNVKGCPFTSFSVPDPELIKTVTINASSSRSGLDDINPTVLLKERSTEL
Excerpt: as §1

## O=C1c2c(O)cc(O)cc2O[C@H](c2ccc(O)c(O)c2)[C@H]1O [Dihydroquercetin (taxifolin), (2R,3R)-2-(3,4-dihydroxyphenyl)-3,5,7-trihydroxy-chroman-4-one]
[1]
  activation of Antioxidant Response Element: significantly activates
[2]
  production of cytokines, formation of ROS and NO, and change in intracellular Ca2+ levels: significant inhibitory effect
[3]
  peroxidation of serum and liver lipids: inhibited
[4]
  toxic effects: No toxic effects
[5]
  inhibition of lipid peroxidation: inhibits lipid peroxidation

## C=C[C@@]1(C)CC[C@H]2C(=CC[C@@H]3[C@]2(C)CCC[C@@]3(C)C(=O)O)C1 [Isopimaric acid]
[6]
  LT biosynthesis inhibitory activity: potent inhibitor

## C=CC(C)(O)CCC1C(=C)CC(OC(C)=O)C2C(C)(C)CCCC12C (stereo not shown) [Larixyl acetate]
[6]
  LT biosynthesis inhibitory activity: highly active

## CC(C)c1ccc2c(c1)CC[C@H]1[C@](C)(CO)CCC[C@]21C [dehydroabietinol]
[6]
  LT biosynthesis inhibitory activity: high LT formation inhibitory activity

## CC(C)C1=CC2=C(CC1)[C@@]1(C)CCC[C@@](C)(C(=O)O)[C@@H]1CC2 [palustric acid]
[7]
  COX-2 inhibitory activity: moderate
[6]
  LT biosynthesis inhibitory activity: less pronounced

Source: patent US20130295036A1, “METHOD OF USING WOOD EXTRACTS IN COSMETIC AND HYGIENE PRODUCTS” (FLAVITPURE, INC., priority 2012, published 2013)
